According to US10138242B2, “Pyrazolopyridine derivatives and their use in therapy” (HELMHOLTZ ZENTRUM MUENCHEN—DEUTSCHES FORSCHUNGSZENTRUM FUER …, priority 2015, dated 2018):
Read-outs that look alike come from different tables or passages of the source.

Experiments:
[1] = target: PEX5-PEX14 complex (biotin-coupled PEX5 peptide, His-tagged T. brucei PEX14) (Trypanosoma brucei brucei, UniProt Q38CL4); assay: biochemical; assay type: binding; details: 30 nM PEX5, 30 nM PEX14, quadruplicate
Source text: The assay uses two types of beads: donor beads are coupled with streptavidin, and acceptor beads are coupled with an anti His-tag antibody. Upon excitation with light of a wavelength of 680 nm the donor beads produce reactive oxygen species that travel in solution only for a limited distance. If the acceptor beads are within that travel distance, it will absorb the reactive oxygen and emit light in the range of 520-620 nm. […] Thus, PEX5-PEX14 complex dissociation by a ligand caused decrease in light emission as the donor and acceptor beads were separated. Typically, we used 30 nM PEX5, 30 nM PEX14 and bead concentrations of 5 μg/mL. The PEX5-PEX14 complex was incubated with varying concentrations of inhibitor for 1 hour. Next, the beads were added and the system allowed to equilibrate for another hour. The raw data were fitted to four parameter sigmoidal curves by Origin software and EC50 values calculated. Each measurement was performed in quadruplicate and every experiment was accompanied with blank and reference samples (using non-biotynylated PEX5 peptide as a binding competitor).

[2] = test system: T. brucei brucei bloodstream form parasites (strain Lister 427); assay: Antitrypanosomal activity assay (resazurin; FIG. 2); assay type: cell-based; details: Trypanosoma brucei; 66 h + 6 h resazurin
Protocol: (A) The trypanosoma cell count and growth were evaluated at different doses of compounds of the invention.
Antitrypanosomal activity was tested on T. brucei brucei bloodstream from parasites (strain—Lister 427, VATMITat 1.2). Stock solutions of compounds (50 mM) were prepared in DMSO. Two fold serial dilutions of each compound (10 wells in each row) were prepared in 96 well plates in HMI111 medium (100 μl/well; quadruplicates; cf. also Hirumi et al., J. Parasitol. 75 (1989), 985-989). One well without compound, and one well with media alone were included in each row. […] The plates were incubated for 66 hours at 37° C. in the incubator with 5% CO2. 20 μl resazurin (Sigma, 0.125 mg/ml in Hanks Balanced Salt Solution) was added to all wells and the plate was further incubated for 6 hours. Change in color of resazurin (blue to pink) by living cells was measured with a 96 well plate reader (excitation at 530 nm, emission at 585 nm, filter cut-off: 570 nm). Percent inhibition values were calculated by setting the well without compound to “0% inhibition”.

[3] = read-out: AlphaScreen EC50 [μM] (±SD)

Sequence of PEX5-PEX14 complex (biotin-coupled PEX5 peptide, His-tagged T. brucei PEX14) (Q38CL4 1-366, one chain of several): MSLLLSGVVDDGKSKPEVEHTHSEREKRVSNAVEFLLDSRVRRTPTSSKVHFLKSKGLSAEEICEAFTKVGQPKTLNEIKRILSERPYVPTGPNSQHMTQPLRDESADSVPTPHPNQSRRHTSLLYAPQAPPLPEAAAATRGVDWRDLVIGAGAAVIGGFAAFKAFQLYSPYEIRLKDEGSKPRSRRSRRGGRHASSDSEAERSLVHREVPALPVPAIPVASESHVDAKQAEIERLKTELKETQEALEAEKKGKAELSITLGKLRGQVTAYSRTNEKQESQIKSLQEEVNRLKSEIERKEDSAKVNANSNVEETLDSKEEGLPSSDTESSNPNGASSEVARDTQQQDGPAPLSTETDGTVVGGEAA

Row | SMILES | EC50 [1, 3] [µM] | IC50 [2] [µM] | EC50 ([1]; AlphaScreen EC50 [μM] (±SD)) [µM]
1 | Cn1nc(C(=O)NCc2cccc3ccccc23)c2c1CCN(Cc1cccc3ccccc13)C2 [Compound 33] | 41.8 |  | 
2 | COc1cc(CN2CCc3c(c(C(=O)NCc4ccccc4)nn3CCO)C2)cc2c1OCO2 [Compound 75] | 94.9 |  | 
3 | Cn1nc(C(=O)NCc2ccccc2)c2c1CCN(Cc1cccc(-c3ccccc3)c1)C2 [Compound 10] | 33.6 | 7.4 | 
4 | Cn1nc(C(=O)NCc2ccc3ccccc3c2)c2c1CCN(Cc1c[nH]c3ccccc13)C2 [Compound 31] | 35.2 |  | 
5 | O=C(NCc1ccccc1)c1nn(CCO)c2c1CN(Cc1cnn(-c3ccccc3)c1)CC2 [Compound 82] | 149 |  | 
6 | CC(NC(=O)c1nn(CCO)c2c1CN(CC1Cc3ccccc3CN1C)CC2)c1ccccc1 (stereo not shown) [Compound 86] | 169 |  | 
7 | Cn1nc(C(=O)NCc2ccccc2)c2c1CCN(Cc1cccc3ccccc13)C2 [Compound 12] |  | 12 | 
8 | CCc1ccc(CN2CCc3c(c(C(=O)NCc4ccccc4)nn3CCO)C2)cc1 [Compound 71] | 150 |  | 
9 | CC(NC(=O)c1nn(CCO)c2c1CN(Cc1ccc3ccoc3c1)CC2)c1ccccc1 (stereo not shown) [Compound 66] | 147 |  | 
10 | Cn1nc(C(=O)NCc2ccccc2)c2c1CCN(Cc1ccc(-c3ccccc3)cc1)C2 [Compound 9] | 27.8 | 6.8 | 
11 | O=C(NCc1ccccc1)c1nn(CCO)c2c1CN(Cc1cccc(OC(F)F)c1)CC2 [Compound 76] | 148 |  | 
12 | COc1ccc2c(CN3CCc4c(c(C(=O)NCc5cccc6ccccc56)nn4CCO)C3)c[nH]c2c1 [Compound 106] | 25 | 4.6 | 
13 | O=C(NCc1ccccc1)c1nn(CCO)c2c1CN(CC(c1ccccc1)c1ccccc1)CC2 [Compound 81] | 74.9 |  | 
14 | COc1ccc(CN2CCc3c(c(C(=O)NCc4cccc5ccccc45)nn3C3CCCC3)C2)c2ccccc12 [Compound 16] | 10.6 | 2.35 | 
15 | CC(NC(=O)c1nn(CCO)c2c1CN(Cc1cnn(-c3ccccc3)c1)CC2)c1ccccc1 (stereo not shown) [Compound 65] | 112 |  | 
16 | COc1ccc(CN2CCc3c(c(C(=O)NCc4cccc5ccccc45)nn3CC(O)CN)C2)c2ccccc12 (stereo not shown) [Compound 104] | 10.6 | 0.2 | 
17 | O=C(NCc1cccc2ccccc12)c1nn(CCO)c2c1CN(Cc1cccc3cc[nH]c13)CC2 [Compound 53] | 39.8 | 6.8 | 
18 | Cc1ccccc1-c1ccc(CN2CCc3c(c(C(=O)NCc4ccccc4)nn3CCO)C2)cc1 [Compound 80] | 45.9 |  | 
19 | O=C(NCc1ccccc1)c1nn(CCO)c2c1CN(Cc1ccn(-c3ccccc3)c1)CC2 [Compound 27] | 196 | 39 | 
20 | O=C(NCc1cccc2ccccc12)c1nn(CCO)c2c1CN(Cc1c[nH]c3c(C(=O)O)cccc13)CC2 [Compound 117] | 391 |  | 
21 | O=C(NCc1cccc2ccccc12)c1nn(CCO)c2c1CN(Cc1ccc(F)c3ccccc13)CC2 [Compound 115] | 121 | 5.9 | 
22 | O=C(NCc1ccccc1)c1nn(CCO)c2c1CN(Cc1ccc3c(c1)OC=CO3)CC2 [Compound 68] | 159 |  | 
23 | COc1ccc(CN2CCc3c(c(C(=O)NCc4cccc5ccccc45)nn3C3CCC3)C2)c2ccccc12 [Compound 18] | 11.1 | 1.85 | 
24 | O=C(c1nn(Cc2ccccn2)c2c1CN(Cc1ccccc1)CC2)N1CCc2ccccc2C1 [Compound 67] | 74.3 |  | 
25 | O=C(NCc1ccccc1)c1nn(CCO)c2c1CN(CC1=CC(=O)C3C=C(Cl)C=CC3O1)CC2 (stereo not shown) [Compound 64] | 132 |  | 
26 | COC(=O)c1cccc2c(CN3CCc4c(c(C(=O)NCc5ccccc5)nn4CCO)C3)c[nH]c12 [Compound 28] | 155 |  | 
27 | COc1ccc(CN2CCc3c(c(C(=O)NCc4cccc5ccccc45)nn3CCN)C2)c2c1CCCC2 [Compound 100] | 4.62 | 0.05 | 

Row | SMILES | EC50 [1, 3] [µM] | IC50 [2] [µM] | EC50 ([1]; AlphaScreen EC50 [μM] (±SD)) [µM]
28 | CCOC(=O)CN(Cc1cccc2ccccc12)C(=O)c1nn(CCO)c2c1CN(Cc1ccc(OC)c3ccccc13)CC2 [Compound 121] |  | 5 | 
29 | Cn1nc(C(=O)NCc2ccccc2)c2c1CCN(Cc1c[nH]c3cc(OCc4ccccc4)ccc13)C2 [Compound 11] | 22.1 | 1.1 | 
30 | CC(NC(=O)c1nn(CCO)c2c1CN(C(=O)c1ncc3sccn13)CC2)c1ccccc1 (stereo not shown) [Compound 87] | 230 |  | 
31 | O=C(NCc1ccccc1)c1nn(CCO)c2c1CN(Cc1ccccc1C(F)(F)F)CC2 [Compound 72] | 223 |  | 
32 | Cn1nc(C(=O)NCc2ccccc2)c2c1CCN(Cc1ccccc1)C2 [Compound 7] | 4530 | 45 | 
33 | COc1ccc(CN2CCc3c(c(C(=O)NCc4cccc5ccccc45)nn3CCN3CCOCC3)C2)c2ccccc12 [Compound 13] | 6.72 | 3.58 | 
34 | Cn1nc(C(=O)NCc2ccccc2)c2c1CCN(Cc1noc3c1CCCC3)C2 [Compound 70] | 9.69 |  | 
35 | O=C(NCc1ccccc1)c1nn(CCO)c2c1CN(Cc1cc3ccccc3c3ccccc13)CC2 [Compound 30] |  | 6.6 | 29.8
36 | O=C(NCc1cccc2ccccc12)c1nn(CCO)c2c1CN(Cc1c[nH]c3cc(OCc4ccccc4)ccc13)CC2 [Compound 113] | 72.1 |  | 
37 | CCc1ccc(CN2CCc3c(c(C(=O)NCc4ccccc4)nn3CCO)C2)cc1 [Compound 23] | 133 |  | 
38 | O=C(NCc1ccccc1)c1nn(CCO)c2c1CN(Cc1ccc(OC(F)(F)F)cc1)CC2 [Compound 24] | 80.4 | 25 | 
39 | CC(NC(=O)c1nn(CCO)c2c1CN(Cc1cccc3c1OCO3)CC2)c1ccccc1 (stereo not shown) [Compound 69] | 151 |  | 
40 | COc1ccc(CN2CCc3[nH]nc(C(=O)NCc4cccc5ccccc45)c3C2)c2ccccc12 [Compound 5] | 16.5 | 3.4 | 
41 | O=C(NCc1cccc2ccccc12)c1nn(CCO)c2c1CN(Cc1cccc3c1OCO3)CC2 [Compound 54] | 84.4 | 19 | 
42 | COC(=O)c1ccc2c(CN3CCc4c(c(C(=O)NCc5cccc6ccccc56)nn4CCO)C3)c[nH]c2c1 [Compound 108] | 38.7 |  | 
43 | O=C(NCc1ccccc1)c1nn(CCO)c2c1CN(Cc1ccc(-c3ccccc3)cc1)CC2 [Compound 78] | 68.8 |  | 
44 | COc1ccc(CN2CCc3c(c(C(=O)NCc4cccc5ccccc45)nn3CCC(C)(C)C)C2)c2ccccc12 [Compound 124] |  | 3.5 | 
45 | C=C(C)C1CC=C(CN2CCc3c(c(C(=O)NCc4ccccc4)nn3CCO)C2)CC1 (stereo not shown) [Compound 77] | 142 |  | 
46 | O=C(NCc1ccccc1)c1nn(CCO)c2c1CN(Cc1cccn1-c1ccccn1)CC2 [Compound 83] | 132 |  | 
47 | O=C(NCc1ccccc1)c1nn(CCO)c2c1CN(Cc1ccccc1-c1ccco1)CC2 [Compound 74] | 78.3 |  | 
48 | Cc1nc2sccn2c1CN1CCc2c(c(C(=O)NCc3ccccc3)nn2CCO)C1 [Compound 63] | 171 |  | 
49 | C=CCn1nc(C(=O)NCc2ccccc2)c2c1CCN(Cc1ccc3ncccc3c1)C2 [Compound 79] | 95.4 |  | 
50 | O=C(CC1CC1)N1CCc2c(c(C(=O)N3CCc4ccccc4C3)nn2Cc2ccccn2)C1 [Compound 73] | 220 |  | 
51 | CC(=O)c1ccc(CN2CCc3c(c(C(=O)NCc4ccccc4)nn3CCO)C2)cc1 [Compound 29] | 222 |  | 
52 | O=C(NCc1cccc2ccccc12)c1nn(CCO)c2c1CN(CCc1ccccc1)CC2 [Compound 116] | 230 |  | 
53 | Cc1ccc(CCN2CCc3c(c(C(=O)NCc4cccc5ccccc45)nn3CCO)C2)cc1 [Compound 118] | 632 |  | 
